Data on three molecules can be found in patent US20250084116A1, “MIXTURE OF STEREOISOMERS OF A SULFATED GLYCOLIPID” (NATIONAL RESEARCH COUNCIL OF CANADA, priority 2022, published 2025).

“Also recorded” adds a separate entry of the source.

In assay [1] the test system is C57BL/6NCrl mice. Description: Enumeration of IFN-γ secreting Ova-CD8+ T cells in spleen by ELISPOT. To be noted: for Number of IFN γ-secreting Ova-CD8+ T cells, comparison with AddaVax-Ova (ANOVA, Tukey) / Number of IFN γ-secreting Ova-CD8+ T cells, comparison with MPL/alum-Ova (ANOVA, Tukey): 10 μg Ova and 1 mg SLA; for Change in ability to induce IFN-γ+ Ova-CD8+ T cells on reducing SLA dose: 1.0 mg reduced to 0.3 mg SLA; for Differences between SLA formulations to produce IFN-γ+ Ova-CD8+ T cells: at each dose tested. The format is in vivo. The source says:
(§1) C57BL/6NCrl mice (6-8 weeks) were obtained from Charles River Laboratories (Saint-Constant, QC, Canada). Mice were maintained in individually ventilated cages with five female mice to a cage with easy access to food and water in a specific pathogen-free small animal facility with automatically controlled light/dark cycles, humidity and temperature at the National Research Council of Canada (NRC) in accordance with the guidelines of the Canadian Council on Animal Care. The animal use protocol (2016.08) was approved by the NRC Animal Care Committee. All mice were randomized upon entering the facility and were immunized and had samples collected and tested in a blinded method.
(§2) C57BL/6NCrl mice were immunized by i.m. injection (50 μL) into the left tibialis anterior muscle. All mice were immunized twice in a prime/boost regime on day 0 and day 21. Blood samples were taken for sera collection before boost on day 20 as well as on day 28 immediately prior to euthanasia where whole spleens were collected in necropsy.
(§3) SLA archaeosomes were prepared as described previously.^12 Briefly, SLA lipids (SLA-1, SLA-2 or SLA-3) were dissolved in chloroform/methanol and aliquoted to a glass vial; the organic solvent was removed under N2 gas with mild heating to form a thin lipid layer. A vacuum was applied for at least 2 h to ensure total removal of trace solvents. The lipid film was then hydrated with 1.0 mL of Milli-Q water and was shaken for 2 h at 40° C. or until hydration was completed. Archaeosome vesicles were reduced in size using a tabletop ultrasonic water bath (Fisher Scientific FS60H, 130 W and operating frequency of 40 kHz) and high pressure; they were then left to anneal at 4° C. for 12 h in static conditions and finally filter-sterilized through 0.22 μm filter units. The Ova protein solution (type VI, Sigma-Aldrich, Oakville, ON, Canada) was then added to the empty archaeosomes at the desired amount immediately before immunization so that a single dose contained 1 mg or 0.3 mg of SLA and 10 μg or 1 μg of antigen. The commercial adjuvant AddaVax™ (squalene-oil-in-water emulsion, Invivogen, San Diego, CA, USA) was prepared according to manufacturer's recommendations and mixed with 10 μg Ova protein at 1:1, v:v. The TLR4 agonist monophosphoryl Lipid A (MPLA from S. Minnesota R595 VacciGrade, InvivoGen, San Diego, CA, USA) was combined with Alum (Alhydrogel™ “85”, aluminum hydroxide, Brenntag Biosector, Frederikssund, Denmark), 10 μg: 40 μg respectively and 1 μg Ova. All solutions were brought to a physiological pH of 7.4 in phosphate-buffered saline (PBS).
The Enumeration of IFN-γ secreting cells was done by use of an ELISPOT assay as previously described.^12 Briefly, spleen cells (at a final cell density of 4×10^5 cells/well) were added to 96-well ELISPOT plates coated with anti-IFN-γ (Mabtech Inc., Cincinnati, OH, USA), and incubated in the presence of a peptide stimulant (or non-stimulant control) for 20 h at 37° C., 5% CO2. Peptide stimulant consisted of SIINFEKL, an Ovalbumin CD8^+ T cell epitope Ova257-264. Plates were then incubated, washed and developed using AEC substrate (Becton Dickinson, Franklin Lakes, NJ, USA) and counted using an automated ELISPOT plate reader by BIOSYS (Miami, FL, USA).
Data were analyzed using GraphPad Prism 9® (GraphPad Software, San Diego, CA, USA). Antibody titers were log transformed prior to testing and shown as geometric mean titer (GMT) with the lower and upper 95% confidence interval shown in the graph and written in the text. All in vivo generated data were analyzed with the one-way analysis of variance (ANOVA) test followed by post-hoc analysis using Tukey's multiple comparisons test (comparisons among all groups), as indicated in the figure legends. For all analyses, differences were considered to be not significant with p>0.05.

The subject of assay [2] is C57BL/6NCrl mice. Description: In vivo cytotoxicity assay of Ova-CD8+ T cells. To be noted: for In vivo cytotoxicity of Ova-CD8+ T cells, comparison with AddaVax-Ova (ANOVA, Tukey): 10 μg Ova and 1 mg SLA, target cells injected day 27, read day 28; for Change in cytotoxic killing on reducing SLA dose: 1.0 mg reduced to 0.3 mg SLA; for CD8+ T cell cytotoxicity at lower Ova antigen or SLA adjuvant dose: lower dose (1 μg Ova or 0.3 mg SLA) versus optimal dose.
Description: as §1, §2, §3
The activity of antigen-specific CD8^+ T cells (CTL) was measured in vivo as previously described.^10 Briefly, donor spleen-cell suspensions from naïve C57BL/6NCrl mice were prepared. Cells were split into two aliquots. One aliquot was incubated at 37° C. with […] SIINFEKL (JPT Peptide Technologies GmbH) in RIO complete medium (RPMI 1640 with 10% heat-inactivated fetal bovine serum, 1% penicillin/streptomycin, 1% glutamine and 55 μM 2-mercaptoethanol) (Thermo Fisher Scientific, Waltham, MA, USA). After 30 min of incubation, the peptide-pulsed aliquot was stained with a high 10× concentration of CFSE (2.5 μM; Thermo Fisher Scientific); the second non-peptide-pulsed aliquot was stained with 1×CFSE ([…]). Two aliquots of cells (10×10^6/each) were mixed 1:1 and injected into previously immunized recipient mice. Mice injected with Ova alone dissolved in PBS served as controls. At ˜20 to 22 h after the donor cell transfer, spleens were removed from recipients, single-cell suspensions prepared, and cells analyzed by flow cytometry on a BD Fortessa flow cytometer (Becton Dickinson, Franklin Lakes, NJ, USA). The in vivo percentage of peptide pulsed targets relative to non-peptide pulsed targets was enumerated according to a previously published equation.^21, 24-25
(§4) Data were analyzed using GraphPad Prism 9® (GraphPad Software, San Diego, CA, USA). […]

Assay [3] relates to C57BL/6NCrl mice. Kind of assay: Anti-Ova total IgG titres in serum of immunized mice (ELISA). The assay is classed as in vivo. To be noted: day 28, two immunizations, 1 μg Ova and 1 mg SLA.
Description: as §1
C57BL/6NCrl mice were immunized by i.m. injection (50 μL) into the left tibialis anterior muscle. All mice were immunized twice in a prime/boost regime on day 0 and day 21. […]
Anti-Ova total IgG titers in mouse serum were quantified by ELISA as described previously.^11-12 Briefly, 96-well high-binding ELISA plates (Thermo Fisher Scientific, Waltham, MA, USA) were coated overnight with 10 μg/mL of the Ova protein used for immunization. […] No detectable titers were measured in serum samples from naïve control animals.
as §4

Take `CC(C)CCCC(C)CCCC(C)CCCC(C)CCOCC(CO[C@@H]1OC(CO)C(O[C@@H]2OC(COS(=O)(=O)O)C(O)[C@H](O)C2O)[C@H](O)C1O)OCCC(C)CCCC(C)CCCC(C)CCCC(C)C` (mixture of isomers) [SLA-3]: in assay [1] (day 28), the “Number of IFN γ-secreting Ova-CD8+ T cells, comparison with AddaVax-Ova (ANOVA, Tukey)” value is “SLA-3>AddaVax™-Ova” and the “Number of IFN γ-secreting Ova-CD8+ T cells, comparison with MPL/alum-Ova (ANOVA, Tukey)” value is recorded as “SLA-3>MPL/alum-Ova”. Also, in assay [1], the “Change in ability to induce IFN-γ+ Ova-CD8+ T cells on reducing SLA dose” value was “Lesser reductions” and the “Differences between SLA formulations to produce IFN-γ+ Ova-CD8+ T cells” value was “no statistically significant differences”. In addition, the “Adjuvant effectiveness relative to SLA-1 (IFN-γ ELISPOT)” value in assay [1] (FIG. 7) is reported as “at least as effective as SLA-1; also recorded: as effective an adjuvant as semi-synthetically produced SLA”. Further, in assay [2], the “In vivo cytotoxicity of Ova-CD8+ T cells, comparison with AddaVax-Ova (ANOVA, Tukey)” value is reported as “SLA-3>AddaVax™-Ova”; the “Change in cytotoxic killing on reducing SLA dose” value is recorded as “Lesser reductions”; the “CD8+ T cell cytotoxicity at lower Ova antigen or SLA adjuvant dose” value is listed as “lower CD8^+ T cell cytotoxicity”. Further, in assay [2] (FIG. 8), the “Adjuvant effectiveness relative to SLA-1 (cytotoxic killing)” value was “at least as effective as SLA-1”. For the same molecule, the “Anti-Ova IgG titres, comparison with MPL/alum (one-way ANOVA, Tukey)” value in assay [3] is “SLA-3>MPL/alum-Ova”.

Turning to “Ova: Ova protein (type VI, Sigma-Aldrich), model antigen; unadjuvanted control group [reference compound]”, the IFN-γ detectable spots result in assay [1] (Ova antigen alone, unadjuvanted, day 28) was “less than three”.

Turning to `CC(C)CCCC(C)CCCC(C)CCCC(C)CCOC[C@@H](CO[C@@H]1O[C@H](CO)[C@@H](O[C@@H]2O[C@H](COS(=O)(=O)O)[C@H](O)[C@H](O)[C@H]2O)[C@H](O)[C@H]1O)OCCC(C)CCCC(C)CCCC(C)CCCC(C)C` (stereo partly drawn) [SLA-1, 6′-sulfate-β-D-Galp-(1,4)-β-D-Glcp-(1,1)-archaeol, reference compound], in assay [1] (day 28), the “Number of IFN γ-secreting Ova-CD8+ T cells, comparison with AddaVax-Ova (ANOVA, Tukey)” value is reported as “SLA-1>AddaVax™-Ova” and the “Number of IFN γ-secreting Ova-CD8+ T cells, comparison with MPL/alum-Ova (ANOVA, Tukey)” value was “SLA-1>MPL/alum-Ova”. Moreover, in assay [1], the “Change in ability to induce IFN-γ+ Ova-CD8+ T cells on reducing SLA dose” value was “significantly reduces” and the “Differences between SLA formulations to produce IFN-γ+ Ova-CD8+ T cells” value is given as “no statistically significant differences”. In assay [2], the “In vivo cytotoxicity of Ova-CD8+ T cells, comparison with AddaVax-Ova (ANOVA, Tukey)” value is listed as “SLA-1>AddaVax™-Ova”; the “Change in cytotoxic killing on reducing SLA dose” value is on record as “significantly reduces”; the “CD8+ T cell cytotoxicity at lower Ova antigen or SLA adjuvant dose” value is “lower CD8^+ T cell cytotoxicity”. Also, the “Anti-Ova IgG titres, comparison with MPL/alum (one-way ANOVA, Tukey)” value in assay [3] is listed as “SLA-1>MPL/alum-Ova”.
